# Where no end group is shown, it is not given here.
# Key:
# [1] = target: T1, human GIP receptor (Homo sapiens, UniProt P48546); conditions: previously shown, [2016], cited from earlier work
# T1 construct: host or cells: COS-7
# T1 sequence (P48546 22-466): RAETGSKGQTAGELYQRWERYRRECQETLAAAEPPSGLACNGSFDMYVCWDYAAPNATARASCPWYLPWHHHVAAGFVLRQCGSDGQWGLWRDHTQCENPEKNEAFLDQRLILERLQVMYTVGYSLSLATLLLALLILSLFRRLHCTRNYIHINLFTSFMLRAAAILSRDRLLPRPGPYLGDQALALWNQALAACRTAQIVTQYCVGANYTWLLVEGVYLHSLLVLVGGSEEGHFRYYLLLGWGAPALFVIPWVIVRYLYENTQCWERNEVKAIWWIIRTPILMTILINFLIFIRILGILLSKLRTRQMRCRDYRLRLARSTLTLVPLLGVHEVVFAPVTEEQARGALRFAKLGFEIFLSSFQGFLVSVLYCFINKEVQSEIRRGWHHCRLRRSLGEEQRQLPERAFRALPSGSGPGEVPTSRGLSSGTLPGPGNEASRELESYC
# Protocol: The antagonistic properties of mGIPAnt‐1 were determined in vitro in cAMP accumulation before initiation of the in vivo studies in comparison to the naturally occurring […] GIP(3‐30)NH2. The experiments were done on both the human and mouse GIP receptor to examine the translatability between species. To keep the experiments species specific, mGIPAnt‐1 was compared to mouse GIP(3‐30)NH2 (mGIP(3‐30)NH2) on the mouse GIP receptor and human GIP(3‐30)NH2 (hGIP(3‐30)NH2) on the human GIP receptor. We also determined whether mGIPAnt‐1 had any intrinsic activity. Here we observed no activation of the ...
# [2] = target: T2, mouse GIP receptor (Mus musculus, UniProt Q0P543); assay: cAMP accumulation, antagonism of mouse GIP(1‐42) in transfected COS‐7 cells; type: cell-based; conditions: COS‐7 transiently transfected with mouse GIPR; 10 min preincubation with antagonist, then mouse GIP(1‐42) at 50%–80% of Emax for 20 min; HitHunter cAMP; Hill slope −1.0; n = 5 independent experiments; read-out: IC50, inhibition of mGIP‐induced cAMP accumulation, mouse GIPR
# T2 construct: host or cells: COS-7
# T2 sequence (Q0P543 19-460): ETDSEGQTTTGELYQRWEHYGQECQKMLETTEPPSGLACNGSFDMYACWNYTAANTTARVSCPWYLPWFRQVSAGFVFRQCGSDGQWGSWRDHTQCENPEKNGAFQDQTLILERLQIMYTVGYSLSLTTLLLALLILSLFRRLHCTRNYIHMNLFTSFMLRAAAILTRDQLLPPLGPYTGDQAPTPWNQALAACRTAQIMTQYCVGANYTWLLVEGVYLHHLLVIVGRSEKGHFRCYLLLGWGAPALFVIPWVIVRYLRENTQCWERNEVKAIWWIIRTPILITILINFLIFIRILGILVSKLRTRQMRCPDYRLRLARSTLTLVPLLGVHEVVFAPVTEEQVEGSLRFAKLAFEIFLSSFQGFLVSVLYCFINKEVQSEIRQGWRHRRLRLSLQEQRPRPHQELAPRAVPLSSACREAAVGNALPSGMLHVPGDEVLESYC
# Protocol: (§1) COS‐7 cells were cultured at 10% CO2 and 37°C in Dulbecco's Modified Eagle Medium 1885 supplemented with 10% foetal bovine serum, 2‐mM glutamine, 180‐units ml^−1 penicillin and […] streptomycin. Transient transfection of the cells with either human or mouse GIP receptor was performed using the calcium phosphate precipitation method as previously described (van der Velden et al., [2021]). A second set of cells was transiently transfected with either mouse GLP‐1 or GLP‐2 receptor. Following the day after transfection, the cells were seeded in white 96‐well plates with a density of 35.000 cells per well. The next day the assay was initiated by washing the cells with HEPES buffered saline (HBS) followed by an incubation step with HBS and 1‐mM 3‐isobutyl‐1‐methylxanthine for 30 min at 37°C. For agonist studies, the ligands were then added and incubated for an additional 30 min at 37°C. To test for antagonistic properties, the cells were first preincubated for 10 min with the antagonist with subsequent addition of the agonist and incubated for an additional 20 min. The HitHunter® cAMP assay (Eurofins DiscoverX, Fremont, USA) was carried out according to the manufacturer's protocol. Luminescence was measured by PerkinElmer™ Envision 2014 Multilabel Reader.
# To facilitate comparisons of assay outputs (cAMP assays), the results (of duplicate measurements) were normalized, with the response to 10 pM of GIP(1‐42) set as 100%. All ligand concentrations are reported as log‐transformed. The IC50 log values can be found in Figure 1. In Figure 3c, we have subtracted glucose levels from baseline to show the net differences in glucose levels in our different treatment groups. […]
# Results are presented as mean ± SE. Data were analysed with one‐way and two‐way analysis of variance (ANOVA) with Tukey's or Sidak multiple comparisons test and Student's unpaired t tests where appropriate. […] For the in vitro data IC50 values were determined by nonlinear regression using GraphPad Prism 9 (San Diego, California, USA). […]
# [3] = target: T2, mouse GIP receptor; assay: cAMP accumulation, agonism (intrinsic activity) in transfected COS‐7 cells; type: cell-based; conditions: increasing concentrations of ligand alone, 30 min, COS‐7, n = 5
# Protocol: as §1
# (§2) To facilitate comparisons of assay outputs (cAMP assays), the results (of duplicate measurements) were normalized, with the response to 10 pM of GIP(1‐42) set as 100%. All ligand concentrations are reported as log‐transformed. The IC50 log values can be found in Figure 1. In Figure 3c, we have subtracted glucose levels from baseline to show the net differences in glucose levels in our different treatment groups.
# FIGURE 1 In vitro signalling profile of mGIPAnt‐1 on the mouse and human glucose‐dependent insulinotropic polypeptide receptor/(GIPR). COS‐7 cells were transiently transfected with (a) mouse GIPR or (b) human GIPR and assayed for cAMP accumulation. To test for agonism, increasing concentration of the ligand was added. […]
# [4] = test system: Female C57Bl6/J mice; assay: Intraperitoneal glucose tolerance test, inhibition of exogenous GIP; type: in vivo, mouse
# Protocol: To assess the biological activity of mGIPAnt‐1, we performed an intraperitoneal glucose tolerance test. Mice were fasted for 4 h and given either mGIPAnt‐1 ([…]; s.c.) or vehicle at t = −90 min. Group sizes were as follows:‐ Vehicle + Vehicle, n = 10, Vehicle + GIP, n = 12 and mGIPAnt‐1 + GIP, n = 8. Varying group numbers were due to unsuccessful administration of one of the four compounds as confirmed by measurements of plasma concentrations. At t = −10 all mice were given an intraperitoneal (i.p.) injection with dipeptidyl peptidase‐4 (DPP‐4) inhibitor valine pyrrolidide followed by s.c. injection of either 25 nmol·kg^−1 GIP (Synthetic mouse GIP(1‐42) or vehicle. At t = 0 min, mice received an i.p. injection with 0.5‐g·kg^−1 glucose. Blood glucose was measured from the tail vein using a hand‐held glucometer (Accu‐Chek Mobile, Roche, Basel, Switzerland) at t = 0, 10, 30, 45, 60, 120 and 180 min. Retro‐orbital blood samples (50 μl) were taken using EDTA coated glass capillaries (Vitrex, Vasekær, Denmark) at t = 0, 15, 30 and 60, 120 and 180 min and centrifuged at 3500g, 20 min, 4°C. Plasma was transferred into Eppendorf tubes on dry ice and stored at −20°C for later insulin measurements.
# as §2
# [5] = target: T3, mouse GLP‐2 receptor (Mus musculus, UniProt Q5IXF8); assay: cAMP accumulation, agonism in transfected COS‐7 cells; type: cell-based; conditions: increasing concentrations, COS‐7, n = 5
# T3 construct: host or cells: COS-7
# T3 sequence (Q5IXF8 1-512): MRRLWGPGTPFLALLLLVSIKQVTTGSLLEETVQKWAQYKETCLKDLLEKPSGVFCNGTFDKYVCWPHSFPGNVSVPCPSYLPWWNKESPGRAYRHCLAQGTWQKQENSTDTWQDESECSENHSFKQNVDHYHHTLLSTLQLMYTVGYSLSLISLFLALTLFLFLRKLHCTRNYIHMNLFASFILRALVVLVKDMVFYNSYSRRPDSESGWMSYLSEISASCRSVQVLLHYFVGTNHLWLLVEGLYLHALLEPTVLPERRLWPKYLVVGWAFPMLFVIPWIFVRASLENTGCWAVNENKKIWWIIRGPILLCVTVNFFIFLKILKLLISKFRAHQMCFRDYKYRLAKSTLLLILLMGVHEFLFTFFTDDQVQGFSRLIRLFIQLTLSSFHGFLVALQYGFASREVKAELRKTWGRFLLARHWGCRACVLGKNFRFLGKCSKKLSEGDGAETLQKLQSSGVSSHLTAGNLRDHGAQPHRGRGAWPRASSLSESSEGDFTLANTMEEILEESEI
# Protocol: as §1
# FIGURE 2 In vitro signalling profile of mGIPAnt‐1 on the mouse GLP‐1 and GLP‐2 receptor (R). […]
compound,measurement,setting,value
"human GIP(3‐30)NH2 (EGTFISDYSIAMDKIHQQDFVNWLLAQK-NH2; UniProt P09681 54-81, looked up, fragment) [hGIP(3‐30)NH2]",intrinsic activity (activation of human GIP receptor),"[1]; ref Gabe et al., [2018], Gasbjerg et al., [2017], Hansen et al.",no activation
same,IC50,"[1]; ref Hansen et al., read-out: IC50, antagonism of human GIPR",0.012 µM
"CC[C@H](C)[C@H](NC(=O)[C@H](CO)NC(=O)[C@H](Cc1ccc(O)cc1)NC(=O)[C@H](CC(=O)O)NC(=O)[C@H](CO)NC(=O)[C@@H](NC(=O)[C@H](Cc1ccccc1)NC(=O)[C@@H](NC(=O)CNC(=O)[C@@H](N)CCC(=O)O)[C@@H](C)O)[C@@H](C)CC)C(=O)N[C@@H](C)C(=O)N[C@@H](CCSC)C(=O)N[C@@H](CC(=O)O)C(=O)N[C@@H](CCCCN)C(=O)N[C@H](C(=O)N[C@@H](CCCNC(=N)N)C(=O)N[C@@H](CCC(N)=O)C(=O)N[C@@H](CCC(N)=O)C(=O)N[C@@H](CC(=O)O)C(=O)N[C@@H](Cc1ccccc1)C(=O)N[C@H](C(=O)N[C@@H](CC(N)=O)C(=O)N[C@@H](Cc1c[nH]c2ccccc12)C(=O)N[C@@H](CC(C)C)C(=O)N[C@@H](CC(C)C)C(=O)N[C@@H](C)C(=O)N[C@@H](CCC(N)=O)C(=O)N[C@@H](CCCNC(=N)N)C(N)=O)C(C)C)[C@@H](C)CC [mGIP(3‐30)NH2, mouse GIP(3‐30)NH2, reference compound]",IC50,[2],0.813 µM
same,"intrinsic activity (activation of mouse GIP receptor, cAMP)",[3],neither did mGIP(3‐30)NH2 activate
"Synthetic mouse GIP(1‐42) (YAEGTFISDYSIAMDKIRQQDFVNWLLAQRGKKSDWKHNITQ; Gastric inhibitory polypeptide; UniProt P48756 44-85, looked up) [reference compound]",baseline‐subtracted glucose curve during IPGTT,"[4]; mGIPAnt‐1 25 μmol·kg−1 s.c. t = −90 min, GIP 25 nmol·kg−1 s.c. and val‐pyr t = −10 min, glucose 0.5 g·kg−1 i.p., n = 8–12",lowered glucose levels significantly from t = 45 min and onwards
same,glucose levels relative to baseline late in IPGTT,"[4]; t = 120 and 180 min, same dosing as glucose curve",glucose levels dropped significantly below baseline at t = 120 and t = 180 min
same,"incremental area under the glucose curve (iAUC), IPGTT",[4]; vehicle + GIP 25 nmol·kg−1 versus vehicle + vehicle and versus mGIPAnt‐1 + GIP,significantly different
"mGLP‐2: mouse GLP‐2, control agonist at the mouse GLP‐2 receptor (HADGSFSDEMSTILDNLATRDFINWLIQTKITD; Glucagon-like peptide 2; UniProt P55095 146-178, looked up) [reference compound]",activation of mouse GLP‐2 receptor (cAMP),[5],shown to activate their receptors

# Reference: paper PMC9544171, “Glucose‐dependent insulinotropic polypeptide receptor antagonist treatment causes a reduction in weight gain in ovariectomised high fat diet‐fed mice” (British Journal of Pharmacology, 2022)
